ChEMBL document CHEMBL4837263, “N-Aromatic-Substituted Indazole Derivatives as Brain-Penetrant and Orally Bioavailable JNK3 Inhibitors” (ACS Med Chem Lett, 2021)
Active and inactive are the calls of the source. No cut-off for these calls is given here.

Assays:
[1] = Selectivity index, ratio of IC50 for JNK1 (unknown origin) to IC50 for JNK3 (unknown origin)
[2] = molecular target: Mitogen-activated protein kinase 8 (Homo sapiens, UniProt P45983); assay: Inhibition of JNK1 (unknown origin) using biotinylated FL-ATF-2 as substrate measured after 22 mins by homogeneous time-resolved fluorescence analysis
Mitogen-activated protein kinase 8, sequence (P45983 whole entry): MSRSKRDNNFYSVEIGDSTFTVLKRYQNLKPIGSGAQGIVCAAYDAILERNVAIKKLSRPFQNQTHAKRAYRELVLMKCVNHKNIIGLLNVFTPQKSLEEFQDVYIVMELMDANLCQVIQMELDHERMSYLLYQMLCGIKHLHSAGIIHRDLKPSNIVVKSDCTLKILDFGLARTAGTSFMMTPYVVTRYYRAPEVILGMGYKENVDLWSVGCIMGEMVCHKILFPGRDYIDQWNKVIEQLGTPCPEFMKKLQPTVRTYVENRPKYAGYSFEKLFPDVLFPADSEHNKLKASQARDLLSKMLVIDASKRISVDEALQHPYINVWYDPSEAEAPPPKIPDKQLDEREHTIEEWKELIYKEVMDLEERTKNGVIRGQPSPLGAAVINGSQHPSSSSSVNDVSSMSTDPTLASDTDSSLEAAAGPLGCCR

[3] = molecular target: Mitogen-activated protein kinase 10 (Rattus norvegicus) (UniProt P49187); assay: Inhibition of JNK3 in rat primary neuron assessed as reduction in phosphorylation of APP at T668 residue at < 1 nM incubated for 30 mins by Western blot analysis; conditions: dose nM <1, time 30.0 min
Mitogen-activated protein kinase 10 (Rattus norvegicus), sequence (P49187 whole entry): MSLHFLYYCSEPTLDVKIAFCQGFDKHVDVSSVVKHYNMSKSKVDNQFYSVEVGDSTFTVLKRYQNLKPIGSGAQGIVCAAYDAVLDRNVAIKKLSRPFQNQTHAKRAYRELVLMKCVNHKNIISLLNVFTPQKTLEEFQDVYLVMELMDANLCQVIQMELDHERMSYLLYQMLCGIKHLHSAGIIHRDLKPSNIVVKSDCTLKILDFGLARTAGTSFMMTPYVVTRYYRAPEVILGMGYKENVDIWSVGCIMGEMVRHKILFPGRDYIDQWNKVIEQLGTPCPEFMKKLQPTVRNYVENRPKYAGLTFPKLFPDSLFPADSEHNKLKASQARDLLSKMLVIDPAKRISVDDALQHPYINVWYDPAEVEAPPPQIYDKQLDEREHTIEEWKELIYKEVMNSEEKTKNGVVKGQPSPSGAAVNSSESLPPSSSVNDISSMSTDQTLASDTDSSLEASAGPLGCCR

[4] = Selectivity index, ratio of IC50 for p38 alpha (unknown origin) to IC50 for JNK3 (unknown origin)
[5] = Selectivity index, ratio of IC50 for JNK2 (unknown origin) to IC50 for JNK3 (unknown origin)
[6] = Stability in mouse liver microsome assessed as half life; format: ADME; conditions: liver microsomes
CYP3A4 = CYP3A4 (Homo sapiens, UniProt P08684); assay: Inhibition of CYP3A4 (unknown origin) assessed as midazolam hydroxylation to 1'-hydroxy midazolam at 10 uM by cocktail inhibition assay relative to control; conditions: probe midazolam (hydroxylation to 1'-hydroxy midazolam)
CYP3A4, sequence (P08684 whole entry): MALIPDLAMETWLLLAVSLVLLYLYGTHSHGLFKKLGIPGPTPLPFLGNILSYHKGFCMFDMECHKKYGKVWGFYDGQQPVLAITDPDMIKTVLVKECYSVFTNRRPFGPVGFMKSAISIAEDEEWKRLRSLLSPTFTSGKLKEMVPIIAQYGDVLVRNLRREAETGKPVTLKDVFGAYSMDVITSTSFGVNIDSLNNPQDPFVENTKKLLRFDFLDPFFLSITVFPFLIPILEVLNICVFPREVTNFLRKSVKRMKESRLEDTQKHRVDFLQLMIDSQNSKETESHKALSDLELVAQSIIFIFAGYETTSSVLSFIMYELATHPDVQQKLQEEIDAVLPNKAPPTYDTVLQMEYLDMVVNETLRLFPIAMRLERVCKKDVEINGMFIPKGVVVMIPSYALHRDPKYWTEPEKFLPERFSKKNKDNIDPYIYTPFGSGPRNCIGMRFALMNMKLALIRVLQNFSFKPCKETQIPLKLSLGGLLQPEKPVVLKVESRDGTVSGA

CYP2C9 = CYP2C9 (Homo sapiens, UniProt P11712); assay: Inhibition of CYP2C9 (unknown origin) assessed as tolbutamide hydroxylation to hydrocytolbutamide at 10 uM by cocktail inhibition assay relative to control; conditions: probe tolbutamide (hydroxylation to hydroxytolbutamide)
CYP2C9, sequence (P11712 whole entry): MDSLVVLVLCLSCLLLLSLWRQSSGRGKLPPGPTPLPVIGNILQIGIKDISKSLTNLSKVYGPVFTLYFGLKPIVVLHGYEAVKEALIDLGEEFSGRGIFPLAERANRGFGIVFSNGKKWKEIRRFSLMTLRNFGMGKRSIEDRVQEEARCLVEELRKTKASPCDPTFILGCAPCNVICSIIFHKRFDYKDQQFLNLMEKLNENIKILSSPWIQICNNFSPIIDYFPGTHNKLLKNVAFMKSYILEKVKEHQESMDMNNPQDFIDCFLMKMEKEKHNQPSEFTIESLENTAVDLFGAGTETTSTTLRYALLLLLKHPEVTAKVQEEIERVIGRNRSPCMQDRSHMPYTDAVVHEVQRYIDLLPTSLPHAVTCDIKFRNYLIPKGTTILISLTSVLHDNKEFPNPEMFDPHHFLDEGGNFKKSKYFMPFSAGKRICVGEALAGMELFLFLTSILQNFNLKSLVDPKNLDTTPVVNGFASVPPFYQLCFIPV

[7] = Stability in human liver microsome assessed as half life; format: ADME; conditions: liver microsomes
SH-SY5Y = assay: Cytotoxicity against human SH-SY5Y cells assessed as reduction in cell viability at 10 uM measured after 48 hrs by MTT assay; format: cell-based
[8] = molecular target: Mitogen-activated protein kinase 14 (Homo sapiens, UniProt Q16539); assay: Inhibition of p38 alpha (unknown origin) using biotinylated FL-ATF-2 as substrate measured after 22 mins by homogeneous time-resolved fluorescence analysis
Mitogen-activated protein kinase 14, sequence (Q16539 whole entry): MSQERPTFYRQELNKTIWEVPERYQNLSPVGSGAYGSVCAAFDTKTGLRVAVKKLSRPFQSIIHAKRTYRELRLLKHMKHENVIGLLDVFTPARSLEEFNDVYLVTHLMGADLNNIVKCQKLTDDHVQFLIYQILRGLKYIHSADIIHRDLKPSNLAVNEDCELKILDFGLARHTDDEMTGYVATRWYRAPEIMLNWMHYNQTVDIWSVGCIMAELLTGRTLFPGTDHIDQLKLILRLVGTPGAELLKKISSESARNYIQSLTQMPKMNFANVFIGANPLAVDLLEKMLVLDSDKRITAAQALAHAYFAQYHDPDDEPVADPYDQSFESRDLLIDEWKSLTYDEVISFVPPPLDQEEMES

[9] = molecular target: Voltage-gated inwardly rectifying potassium channel KCNH2 (Homo sapiens, UniProt Q12809); assay: Inhibition of human ERG expressed in CHO cells at -80 mV holding potential by automated Qpatch electrophysiological method
Voltage-gated inwardly rectifying potassium channel KCNH2, sequence (Q12809 whole entry): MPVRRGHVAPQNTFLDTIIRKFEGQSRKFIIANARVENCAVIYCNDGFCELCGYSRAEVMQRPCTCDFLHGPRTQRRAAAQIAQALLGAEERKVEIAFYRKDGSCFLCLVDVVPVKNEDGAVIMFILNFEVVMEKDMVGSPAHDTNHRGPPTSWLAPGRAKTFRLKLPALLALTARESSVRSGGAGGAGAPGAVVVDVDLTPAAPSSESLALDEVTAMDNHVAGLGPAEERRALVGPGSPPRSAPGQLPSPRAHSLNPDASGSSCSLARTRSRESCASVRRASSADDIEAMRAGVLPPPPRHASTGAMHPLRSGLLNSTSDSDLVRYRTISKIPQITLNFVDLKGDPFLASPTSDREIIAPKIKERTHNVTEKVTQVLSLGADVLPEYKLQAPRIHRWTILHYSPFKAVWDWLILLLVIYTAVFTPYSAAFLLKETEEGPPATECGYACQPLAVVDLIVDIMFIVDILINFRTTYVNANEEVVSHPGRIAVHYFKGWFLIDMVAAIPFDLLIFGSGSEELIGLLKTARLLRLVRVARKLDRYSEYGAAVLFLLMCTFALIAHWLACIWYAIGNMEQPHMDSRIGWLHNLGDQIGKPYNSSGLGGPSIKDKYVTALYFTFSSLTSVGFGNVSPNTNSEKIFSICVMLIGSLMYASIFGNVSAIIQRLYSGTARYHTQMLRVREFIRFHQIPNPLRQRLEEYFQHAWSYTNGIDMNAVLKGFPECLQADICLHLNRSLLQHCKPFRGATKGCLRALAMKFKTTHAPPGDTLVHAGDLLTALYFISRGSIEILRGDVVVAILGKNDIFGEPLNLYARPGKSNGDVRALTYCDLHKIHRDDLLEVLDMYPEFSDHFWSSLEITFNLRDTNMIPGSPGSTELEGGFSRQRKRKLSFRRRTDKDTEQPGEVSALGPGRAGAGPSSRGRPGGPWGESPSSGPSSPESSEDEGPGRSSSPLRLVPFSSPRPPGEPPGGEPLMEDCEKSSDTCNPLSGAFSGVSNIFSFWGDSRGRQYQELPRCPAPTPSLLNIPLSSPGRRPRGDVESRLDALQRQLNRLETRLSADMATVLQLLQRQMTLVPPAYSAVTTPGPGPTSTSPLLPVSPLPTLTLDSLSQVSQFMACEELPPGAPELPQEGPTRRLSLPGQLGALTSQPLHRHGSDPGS

[10] = molecular target: Mitogen-activated protein kinase 10 (Homo sapiens, UniProt P53779); assay: Inhibition of JNK3alpha1 (unknown origin) using biotinylated FL-ATF-2 as substrate measured after 22 mins by homogeneous time-resolved fluorescence analysis
Mitogen-activated protein kinase 10, sequence (P53779 whole entry): as the sequence (P49187 whole entry) above, with H27Q, S32Y, V33I, V34A counted along it

CYP1A2 = molecular target: T1, CYP1A2 (Homo sapiens, UniProt P05177); assay: Inhibition of CYP1A2 (unknown origin) assessed as phenaceten demethylation to acetaminophen at 10 uM by cocktail inhibition assay relative to control; conditions: probe phenacetin (demethylation to acetaminophen)
T1 sequence (P05177 whole entry): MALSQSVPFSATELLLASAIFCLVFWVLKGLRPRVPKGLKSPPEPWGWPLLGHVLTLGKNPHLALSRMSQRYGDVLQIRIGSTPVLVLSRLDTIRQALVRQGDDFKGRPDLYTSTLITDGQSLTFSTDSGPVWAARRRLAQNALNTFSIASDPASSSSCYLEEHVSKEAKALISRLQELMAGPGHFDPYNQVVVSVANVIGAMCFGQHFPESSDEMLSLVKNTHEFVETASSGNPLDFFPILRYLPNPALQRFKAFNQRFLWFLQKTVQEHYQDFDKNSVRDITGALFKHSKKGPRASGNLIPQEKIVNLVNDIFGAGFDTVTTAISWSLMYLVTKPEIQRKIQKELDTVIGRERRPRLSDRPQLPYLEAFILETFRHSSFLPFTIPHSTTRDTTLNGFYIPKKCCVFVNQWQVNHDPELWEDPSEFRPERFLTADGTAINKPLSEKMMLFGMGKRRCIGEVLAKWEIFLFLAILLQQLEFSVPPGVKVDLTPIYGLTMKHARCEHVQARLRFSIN

CYP2D6 = CYP2D6 (Homo sapiens, UniProt P10635); assay: Inhibition of CYP2D6 (unknown origin) assessed as bufuralol hydroxylation to 4'-hydroxy bufuralol at 10 uM by cocktail inhibition assay relative to control; conditions: probe bufuralol (hydroxylation to 4'-hydroxy bufuralol)
CYP2D6, sequence (P10635 whole entry): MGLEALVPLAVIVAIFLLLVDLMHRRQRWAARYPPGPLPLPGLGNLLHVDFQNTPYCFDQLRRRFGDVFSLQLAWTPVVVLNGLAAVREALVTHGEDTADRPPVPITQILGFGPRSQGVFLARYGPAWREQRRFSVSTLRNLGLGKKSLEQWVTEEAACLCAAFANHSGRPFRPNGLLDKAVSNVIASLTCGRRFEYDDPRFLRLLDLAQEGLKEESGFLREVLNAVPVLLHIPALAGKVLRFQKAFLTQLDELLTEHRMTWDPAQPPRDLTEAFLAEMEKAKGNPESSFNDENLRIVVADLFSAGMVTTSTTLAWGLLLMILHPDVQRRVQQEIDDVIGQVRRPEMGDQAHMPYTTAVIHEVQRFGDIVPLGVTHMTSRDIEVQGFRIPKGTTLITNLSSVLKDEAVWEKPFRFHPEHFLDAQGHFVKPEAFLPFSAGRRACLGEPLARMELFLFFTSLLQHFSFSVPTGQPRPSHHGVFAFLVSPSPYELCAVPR

[11] = molecular target: Mitogen-activated protein kinase 9 (Homo sapiens, UniProt P45984); assay: Inhibition of JNK2 (unknown origin) using biotinylated FL-ATF-2 as substrate measured after 22 mins by homogeneous time-resolved fluorescence analysis
Mitogen-activated protein kinase 9, sequence (P45984 whole entry): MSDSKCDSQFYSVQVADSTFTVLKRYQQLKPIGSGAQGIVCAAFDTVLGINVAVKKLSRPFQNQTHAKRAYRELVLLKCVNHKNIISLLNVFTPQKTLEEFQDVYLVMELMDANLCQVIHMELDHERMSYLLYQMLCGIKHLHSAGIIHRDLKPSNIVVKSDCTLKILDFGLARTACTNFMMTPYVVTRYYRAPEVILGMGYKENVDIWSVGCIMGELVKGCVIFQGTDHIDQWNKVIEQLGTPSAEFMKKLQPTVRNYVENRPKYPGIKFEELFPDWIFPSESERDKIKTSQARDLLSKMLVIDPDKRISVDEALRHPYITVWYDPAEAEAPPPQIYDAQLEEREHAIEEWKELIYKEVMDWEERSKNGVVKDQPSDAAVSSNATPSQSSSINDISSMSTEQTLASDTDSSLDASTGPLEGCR

Cytochrome P450 2C9 = Cytochrome P450 2C9 (Homo sapiens, UniProt P11712); assay: Inhibition of CYP2C9 (unknown origin) by titration method
Cytochrome P450 2C9, sequence (P11712 whole entry): as the sequence (P11712 whole entry) above

Row | Ratio IC50 [1] | IC50 [2] [nM] | Ratio IC50 [4] | IC50 [8] [nM] | IC50 [10] [nM] | SMILES | further results
1 | 124 | 619 | 20 | 100 | 5 | CNC(=O)c1cc(-n2ncc3cc(Nc4ccccc4Cl)c(F)cc32)cs1 | inhibition [3]: Active; Ratio IC50 [5]: 18; half-life [6]: 42 min; inhibition at 10 µM (CYP3A4): -13%; inhibition at 10 µM (CYP2C9): 39%; half-life [7]: 37 min; Cell viability (SH-SY5Y): 83%; IC50 [9]: > 30000 nM; inhibition at 10 µM (CYP1A2): 21%; inhibition at 10 µM (CYP2D6): -4%; IC50 [11]: 93 nM
2 | – | – | – | – | 1000 | CNC(=O)c1cc(-n2ncc3nc(Nc4ccccc4Cl)ncc32)cs1 | –
3 | 76 | 6000 | 6 | 490 | 79 | Cc1nc2c(cnn2-c2csc(C(=O)NC3COC3)c2)cc1Nc1ccc(F)cc1Cl | –
4 | > 59 | > 10000 | 8 | 1420 | 169 | Cc1nc2c(cnn2-c2csc(C(=O)NC3COC3)c2)cc1Nc1cccc(F)c1Cl | –
5 | 139 | 690 | 17 | 86 | 5 | O=C(NC1COC1)c1cc(-n2ncc3cc(Nc4ccccc4Cl)ncc32)cs1 | –
6 | 89 | 178 | 12 | 24 | 2 | O=C(N[C@H]1CCOC1)c1cc(-n2ncc3cc(Nc4ccccc4Cl)c(F)cc32)cs1 | –
7 | 132 | 627 | 16 | 65 | 4 | CC(=O)N1CC[C@H](NC(=O)c2cc(-n3ncc4cc(Nc5ccccc5Cl)c(F)cc43)cs2)C1 | –
8 | 55 | 1100 | 8 | 160 | 20 | CNC(=O)c1cc(-n2ncc3cc(Nc4ccccc4Cl)c(OC)cc32)cs1 | –
9 | 60 | 120 | 24 | 47 | 2 | O=C(NC1CCOCC1)c1cc(-n2ncc3cc(Nc4ccccc4Cl)c(F)cc32)cs1 | –
10 | – | 213 | – | 106 | 2 | CNC(=O)c1cc(-n2ncc3cc(Nc4c(F)cccc4Cl)cnc32)cs1 | half-life [6]: 22 min; half-life [7]: 30 min; Cell viability (SH-SY5Y): 104%; IC50 [11]: 52 nM
11 | 75 | 1050 | 29 | 400 | 14 | O=C(NC1COC1)c1cc(-n2ncc3cc(Nc4ccccc4Cl)c(F)cc32)cs1 | Ratio IC50 [5]: 95; half-life [6]: 20 min; inhibition at 10 µM (CYP3A4): -56%; inhibition at 10 µM (CYP2C9): 41%; half-life [7]: 92 min; Cell viability (SH-SY5Y): 98%; inhibition at 10 µM (CYP1A2): 4%; inhibition at 10 µM (CYP2D6): -16%; IC50 [11]: 1330 nM
12 | – | > 10000 | – | > 10000 | > 10000 | CNC(=O)c1cc(-n2ncc3cc(Nc4cccc(OC)c4Cl)c(C)nc32)cs1 | –
13 | – | > 10000 | – | 2890 | 1070 | Cc1nc2c(cnn2-c2csc(C(=O)NC3COC3)c2)cc1Nc1cc(F)ccc1Cl | –
14 | 157 | 940 | 43 | 260 | 6 | O=C(NC1COC1)c1cc(-n2ncc3cc(Nc4ccccc4Cl)cnc32)cs1 | Ratio IC50 [5]: 43; IC50 (Cytochrome P450 2C9): 4000 nM; half-life [6]: 9 min; inhibition at 10 µM (CYP3A4): 14%; inhibition at 10 µM (CYP2C9): 76%; half-life [7]: 21 min; Cell viability (SH-SY5Y): 103%; inhibition at 10 µM (CYP1A2): 19%; inhibition at 10 µM (CYP2D6): 15%; IC50 [11]: 256 nM
15 | 130 | 260 | 28 | 57 | 2 | CNC(=O)c1cc(-n2ncc3cc(Nc4c(F)cccc4Cl)ncc32)cs1 | Ratio IC50 [5]: 37; IC50 [11]: 74 nM
16 | 83 | 333 | 12 | 46 | 4 | O=C(NCC(F)F)c1cc(-n2ncc3cc(Nc4ccccc4Cl)c(F)cc32)cs1 | –

Row | Ratio IC50 [1] | IC50 [2] [nM] | Ratio IC50 [4] | IC50 [8] [nM] | IC50 [10] [nM] | SMILES | further results
17 | – | – | – | – | – | CNC(=O)c1cc(-n2ncc3cc(Oc4ccccc4Cl)ccc32)cs1 | half-life [6]: 15 min; half-life [7]: 72 min; Cell viability (SH-SY5Y): 94%; IC50 [11]: 1020 nM
18 | – | 285 | – | 300 | 5 | [2H]C([2H])([2H])N1CC[C@H](NC(=O)c2cc(-n3ncc4cc(Nc5ccccc5Cl)c(F)cc43)cs2)C1 | IC50 [9]: < 1000 nM
19 | 56 | 169 | 14 | 41 | 3 | COCCNC(=O)c1cc(-n2ncc3cc(Nc4ccccc4Cl)c(F)cc32)cs1 | –
20 | 150 | 150 | 14 | 14 | 1 | O=C(NC1CC1)c1cc(-n2ncc3cc(Nc4ccccc4Cl)c(F)cc32)cs1 | –
21 | 73 | 872 | 31 | 380 | 12 | CNC(=O)c1cc(-n2ncc3cc(Nc4c(F)cccc4Cl)c(C)nc32)cs1 | Ratio IC50 [5]: 11; half-life [6]: 17 min; inhibition at 10 µM (CYP3A4): -2%; inhibition at 10 µM (CYP2C9): 61%; half-life [7]: 26 min; Cell viability (SH-SY5Y): 109%; IC50 [9]: > 30000 nM; inhibition at 10 µM (CYP1A2): 43%; inhibition at 10 µM (CYP2D6): 19%; IC50 [11]: 140 nM
22 | – | – | – | – | 100 | O=C(NC1COC1)c1cc(-n2ncc3nc(Nc4ccccc4Cl)ccc32)cs1 | –
23 | 248 | 1240 | 13 | 65 | 5 | CNC(=O)c1cc(-n2ncc3cc(Nc4c(F)cccc4OC)c(F)cc32)cs1 | –
24 | – | – | – | > 20000 | – | O=C(Nc1cnn(-c2csc(C(=O)NC3COC3)c2)c1)Nc1ccccc1Cl | Cell viability (SH-SY5Y): 104%; IC50 [9]: > 30000 nM
25 | – | – | – | > 20000 | < 1 | O=C(Nc1cnn(-c2cccc(C(=O)Nc3cnn(C4CCNC4)c3)c2)c1)Nc1ccccc1Cl (stereo not given) | –
26 | 129 | 258 | 12 | 24 | 2 | CNC(=O)c1cc(-n2ncc3cc(Nc4c(F)cccc4Cl)c(F)cc32)cs1 | Ratio IC50 [5]: 15; IC50 [11]: 29 nM
27 | – | – | – | – | – | CN1CC[C@H](NC(=O)c2cc(-n3ncc4cc(Nc5ccccc5Cl)c(F)cc43)cs2)C1 | Ratio IC50 ([1]; tested as the 2H-labelled form): 57; Ratio IC50 ([4]; tested as the 2H-labelled form): 60
28 | – | 263 | – | 226 | 1 | [2H]C([2H])([2H])N1CC[C@H](NC(=O)c2cc(-n3ncc4cc(Nc5ccccc5Cl)ccc43)cs2)C1 | IC50 [9]: < 1000 nM
29 | – | – | – | – | – | CN1CC[C@H](NC(=O)c2cc(-n3ncc4cc(Nc5ccccc5Cl)ccc43)cs2)C1 | Ratio IC50 ([1]; tested as the 2H-labelled form): 263; Ratio IC50 ([4]; tested as the 2H-labelled form): 226
30 | 200 | 400 | 62 | 124 | 2 | CC(C)NC(=O)c1cc(-n2ncc3cc(Nc4ccccc4Cl)c(F)cc32)cs1 | –
31 | 27 | 825 | 10 | 325 | 31 | CC(C)N1CC[C@@H](NC(=O)c2cc(-n3ncc4cc(Nc5ccccc5Cl)ccc43)cs2)C1 | –
